In patent publication US9555057B2, “Compositions and methods for reducing cutaneous microbiome malodor” (The Research Foundation for The State University of New York, priority 2014, dated 2017):
Entries after “also recorded” stand apart in the source; their conditions may differ.

Columns and labels:
[1] = system: C. striatum, Staph. epidermidis or a 1:1 mixture thereof
Source text: The pH of the medium with each of the different zinc salts needed some adjustment, which was done with 1 M HCl or 1 M NaOH depending upon the pH of the stock solutions of each zinc salt employed.

[2] = system: Staph. epidermidis (ATCC 12228); experiment: Kirby-Bauer disk diffusion susceptibility test; type: cell-based, Staphylococcus epidermidis; conditions: zinc compound alone, levels tested (1%, 3%, 5%)
Source text: (§1) C. striatum and Staph. epidermidis are among the most prevalent bacteria that comprise the human cutaneous microbiota. […] The purpose of this segment was to examine whether formulations arising out of the studies reported in the prior sections that favor the growth and metabolism of Staph. epidermidis as a desirable skin entity that can inhibit the growth of C. striatum, a less desirable entity, and do so when both microorganisms are present initially at the same levels. In this regard, an adaptation of the Kirby-Bauer disk diffusion susceptibility test appeared to be relevant for such determination.
(§2) Here we have grown less than desirable C. striatum and highly desirable Staph. epidermidis, alone and in combination, under a variety of substrate conditions to determine, if the latter micro-organism could be selected over C. striatum and thereby be used as a means of reducing the presence of less desirable odor-producing C. striatum.
(§3) Compositions indicated as possible suppressants of C. striatum and/or enhancers of Staph. epidermidis were based on the prior studies above and for convenience of presentation were categorized as possible active test ingredients and then formulae and mixtures in which they were tested. Accordingly, the total number of compositions tested was eight. Careful attention was paid to sterility throughout in the preparation and handling of the compounds and compositions utilized herein.
(§4) Each of these formulae were prepared at 4 different concentrations: original as in (b), and 1.5, 2.5 and 7.5 times the original concentration. Again, all formulae were prepared under aseptic conditions.
To make compositions 1.5 times the original concentration listed above, formulae 7.5 times the original concentrations were diluted a factor of 5 with sterile distilled water. […]
Each strain was determined as resistant, intermediate, or susceptible to the ingredients, formulae and mixtures tested. After 24 hours of incubation at 37° C., the diameter of the zone of growth inhibition around each disk was measured to the nearest whole mm. […]

[3] = system: C. striatum (ATCC 43751); experiment: Kirby-Bauer disk diffusion susceptibility test; type: cell-based, Corynebacterium striatum; conditions: for Intensity of inhibition of the growth of C. striatum (CS): Blood BHI agar plate, 37° C., 24 hours
Source text: as §1, §2, §3, §4
To make compositions 1.5 times the original concentration listed above, formulae 7.5 times the original concentrations were diluted a factor of 5 with sterile distilled water. To make compositions 2.5 times the original concentration listed above, formulae 7.5 times the original concentrations were diluted three-fold with sterile distilled water. To summarize: a total of 3 ingredients, 2 formulae and 2 mixtures were tested. A total of 20 disks were prepared for tests of susceptibility to each bacterial sample and these are outlined in Table 5.2 below:
A TB syringe with a 25-27 G sterile needle was used to help break up the remains of any pellets. […] Plating Procedures • Five bacterial samples of C. striatum and Staph. epidermidis were plated on Blood BHI agar and CHROMagar plates, respectively. • 100 μl of each bacterial sample was inoculated on Blood BHI agar plates by using sterile glass bars and a turning table to facilitate each bacterial sample being spread evenly on each of the agar plates. • Each spread bacterial suspension was allowed to dry on inoculated plates for five minutes. • Paper disks were immersed, respectively, with the above 3 ingredients, 2 formulae and 2 mixtures; absorptions were saturated. • Four disks were placed on each plate with sterile forceps. • Incubated plates within 15 minutes after applying the disks to ensure test was under standardized conditions, where diffusion of the ingredients and formulae and bacterial growth commence at approximately the same time. Plates were incubated at 37° C. for 24 hours. Interpretation of Results
Each strain was determined as resistant, intermediate, or susceptible to the ingredients, formulae and mixtures tested. After 24 hours of incubation at 37° C., the diameter of the zone of growth inhibition around each disk was measured to the nearest whole mm. Plates were carefully examined for well-developed colonies within the zone of inhibition.

[4] = system: pure cultures of microorganisms resident on human axillary skin; conditions: for Odor released on catabolism: bacteria that catabolized the substrate
Method: Pure cultures of the numerically most prominent microorganisms normally resident on human axillary skin (see Table 1) were surveyed for their effects on (i) pH, (ii) Eh, (iii) ability to generate malodor and (iv) ability to generate hydrogen peroxide. Four hour incubation experiments were conducted, in which each of a wide range of carbohydrate and amino acid substrates (see Table 1) were surveyed for malodor production and related changes in pH and Eh thereto.
Each microorganism was recovered from its frozen state at −70° C. and grown at 37° C. in 10 ml of appropriate and respective culture media for a period between 24 and 48 hours (see Table 1). Incubations were carried out to middle and late exponential stages of bacterial growth under the incubation conditions indicated in Table 1. A 1.5 ml inoculum was transferred therefrom to polypropylene bottles containing 150 ml of the initial growth medium. This was then incubated at 37° C. for 24 to 48 hours. Bacteria were harvested by centrifugation (DuPone, Sorvall, Newtown, Conn.) at 10,000 g and 4° C. for 20 min. […] The sediment was then washed with sterile distilled water to remove residual growth medium. This was done by centrifuging the bacterial sediment three times at 1,740 g for 15 min at 4° C.
Each pure culture was pre-incubated at 37° C. at pH 7.0 to exhaust or reduce any stored carbohydrate and other carbon/energy sources acquired during growth in culture.
Both of these electrodes were connected to a second pH meter (pH M26 Radiometer Copenhagen NV, Denmark) and used here as a millivoltmeter. For the Eh measurements, when the Eh electrode was immersed in an incubation mixture, each Eh reading was recorded after allowing several seconds for each reading to stabilize. The Eh value was related to that of the hydrogen electrode by adding to each reading the difference between the E0 value for the Red Rod reference element-mercury and hydrogen electrodes—i.e. 270 my at 25° C.
At each time point, the odor was determined organoleptically by immersing a solid glass rod into each incubation mixture, stirring gently 3 times and then removing and carefully smelling the rod after 5 seconds. The intensity of the odor was assessed on a 0 to 4 numerical scale (0—no odor, 1—mild odor, 2—moderate odor, 3—strong odor, and 4—very strong odor).

[5] = system: mixture of C. striatum and Staph. epidermidis in the ratio of 1 to 1; experiment: Zinc carbonate / arginine bicarbonate on odor and pH, CIL and phenylalanine medium; type: cell-based
[6] = 3% and 5%, Blood BHI agar plates
[7] = concentration 5%, paper disk 12.7 mm

## CC(=O)[O-].CC(=O)[O-].[Zn+2] [Zinc acetate]
[1]; zinc acetate, CIL and either arginine or arginine bicarbonate, pH 4.0 to 8.0, 4 hours, no phenylalanine
  Sulfurous odor and Eh: No sulfurous odor nor corresponding decrease in the Eh

## NCC(=O)[O-].NCC(=O)[O-].[Zn+2] [Zinc glycinate, zinc glycinate]
[2]
  Sensitivity of Staph. epidermidis (in words): not sensitive
[3]; 1%, Blood BHI agar
  Sensitivity of C. striatum (in words): not sensitive
[3]; [6]
  Sensitivity of C. striatum (in words): viability loss; also recorded: sensitive
[3]; concentration 3%
  Diameter of the zone of growth inhibition, C. striatum: 14 mm
  Partial or complete inhibition, C. striatum: (p)
  Intensity of inhibition of the growth of C. striatum (CS): + ((+) the diameter of inhibition <15 mm)
[3]; concentration 5%
  Partial or complete inhibition, C. striatum: (p)
  Intensity of inhibition of the growth of C. striatum (CS): ++ ((++) the diameter of inhibition 15-20 mm)
[3]; [7]
  Diameter of the zone of growth inhibition, C. striatum: 17 mm

## N[C@@H](CS)C(=O)O [cysteine]
[4]; 6.0 mM
  Odor released on catabolism: sulfurous odor

## N[C@@H](CSSC[C@H](N)C(=O)O)C(=O)O [cystine]
[4]; 6.0 mM
  Odor released on catabolism: sulfurous odor

## CC(C)C[C@H](N)C(=O)O [leucine]
[4]; 6.0 mM, Staph. saprophyticus, Staph. hominis, Staph. haemolyticus and C. minutissium, 0 to 4 scale
  Foot-web odor score: 2

## CSCC[C@H](N)C(=O)O [methionine]
[4]; 6.0 mM, Staph. epidermidis, Staph. saprophyticus, C. jeikeium, C. minutissium, Brevibacterium epidermidis, P. avidum, P. acne, M. furfur
  Methyl mercaptan-like odor level: mild to moderate

## N[C@@H](Cc1ccccc1)C(=O)O [phenylalanine]
[5]; medium with zinc carbonate, CIL and phenylalanine, between pH 5.0 and 8.0, 4 hours
  Pleasant odor: pleasant odor developed
[5]; phenylalanine added to zinc acetate, CIL, arginine or arginine bicarbonate media, pH 6.5 and 7.0, 4 hour
  Pleasant odor: pleasant odor appeared
[4]; 6.0 mM, C. striatum, Staph. saprophyticus or Staph. hominis
  Odor produced on catabolism (in words): pleasant odor

## OC[C@H]1O[C@@](CO)(O[C@H]2O[C@H](CO)[C@@H](O)[C@H](O)[C@H]2O)[C@@H](O)[C@@H]1O [sucrose]
[4]; 28 mM carbohydrate, start pH 7.0, 37° C., 4 hours, across the bacteria tested
  pH response, lowest pH reached: 4.2

## N[C@@H](Cc1c[nH]c2ccccc12)C(=O)O [tryptophan]
[4]; 6.0 mM, M. luteus and P. acne, 0 to 4 scale
  Indole/skatole odor level: 2

## Zinc arginate
[1]; 12 mM zinc arginate, CIL and phenylalanine, pH 4.0 or 5.0, 4 hours
  Foot odor smell: mild
[1]; 12 mM zinc arginate, CIL and phenylalanine, pH 4.0 to 8.0, 4 hours
  Eh: decreased significantly
[1]; 12 mM zinc arginate, CIL and phenylalanine, pH 4.0 to 8.0, 4 hours, versus control groups
  Sulfurous odor: blocked completely
[1]; 12 mM zinc arginate, CIL and phenylalanine, pH 6.0 or above
  Foot odor generation: disappeared
[1]; C. striatum or the mixture, zinc arginate, CIL and phenylalanine, pH 5.0 to 8.0, 4 hours
  Favorable odor: evident
[1]; Staph. epidermidis alone, zinc arginate, CIL and phenylalanine, 4 hours
  Pleasant flower odor: not detected

## basic zinc carbonate (ZnCO3. 3 Zn(OH)2)
[5]; medium with zinc carbonate, CIL and phenylalanine, pH 4.0 to 8.0, 4 hours
  Sulfurous odor: no sulfurous odor was observed
[2]
  Sensitivity of Staph. epidermidis (in words): not sensitive
[3]; 1%, Blood BHI agar
  Sensitivity of C. striatum (in words): not sensitive
[3]; [6]
  Sensitivity of C. striatum (in words): viability loss; also recorded: sensitive
[3]; concentration 1%
  Partial or complete inhibition, C. striatum: (p)
  Intensity of inhibition of the growth of C. striatum (CS): ±
[3]; concentration 3%
  Diameter of the zone of growth inhibition, C. striatum: 14 mm
  Partial or complete inhibition, C. striatum: (p)
  Intensity of inhibition of the growth of C. striatum (CS): + ((+) the diameter of inhibition <15 mm)
[3]; concentration 5%
  Partial or complete inhibition, C. striatum: (p)
  Intensity of inhibition of the growth of C. striatum (CS): ++ ((++) the diameter of inhibition 15-20 mm)
[3]; [7]
  Diameter of the zone of growth inhibition, C. striatum: 15 mm
